Assay results as given in BindingDB's records for doi:10.1101/2020.09.12.293498 (Pfizer, 2020).

Key:
[1] = biological target: Replicase polyprotein 1ab (Avian infectious bronchitis virus (strain Beaudette CK), UniProt P0C6Y2); assay: FRET protease activity assay
Method: (§1) PF-00835231 was evaluated against 3CLpro from a variety of other coronaviruses representing alpha, beta and gamma groups of Coronaviridae, using biochemical F rster Resonance Energy Transfer (FRET) protease activity assays.

[2] = biological target: Replicase polyprotein 1ab (Human coronavirus HKU1 (isolate N5), UniProt P0C6X4); assay: FRET protease activity assay
Sequence of Replicase polyprotein 1ab (Human coronavirus HKU1 (isolate N5), UniProt P0C6X4) (P0C6X4 3285-3587 limits assumed): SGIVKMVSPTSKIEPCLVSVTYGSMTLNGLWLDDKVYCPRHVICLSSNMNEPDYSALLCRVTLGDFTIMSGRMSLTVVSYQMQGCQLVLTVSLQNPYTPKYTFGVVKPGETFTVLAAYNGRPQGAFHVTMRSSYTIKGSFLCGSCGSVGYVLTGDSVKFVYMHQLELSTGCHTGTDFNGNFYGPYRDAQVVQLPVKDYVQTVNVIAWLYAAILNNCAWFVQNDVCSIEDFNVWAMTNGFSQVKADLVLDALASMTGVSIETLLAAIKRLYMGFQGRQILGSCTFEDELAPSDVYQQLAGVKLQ
Method: as §1

Sequence of Replicase polyprotein 1ab (Avian infectious bronchitis virus (strain Beaudette CK), UniProt P0C6Y2) (P0C6Y2 2780-3086 limits assumed): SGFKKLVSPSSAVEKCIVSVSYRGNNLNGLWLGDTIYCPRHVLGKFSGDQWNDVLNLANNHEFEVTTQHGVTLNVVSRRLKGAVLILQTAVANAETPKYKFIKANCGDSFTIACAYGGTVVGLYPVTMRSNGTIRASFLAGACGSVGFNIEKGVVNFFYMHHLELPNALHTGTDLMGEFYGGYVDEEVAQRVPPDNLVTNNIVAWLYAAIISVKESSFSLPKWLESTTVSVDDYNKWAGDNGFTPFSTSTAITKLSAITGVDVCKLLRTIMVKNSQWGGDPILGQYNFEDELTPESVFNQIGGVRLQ

## COc1cccc2[nH]c(C(=O)N[C@@H](CC(C)C)C(=O)N[C@@H](C[C@@H]3CCNC3=O)C(=O)CO)cc12 [WO2005113580-Ex-02]
[1]
  Ki: 4 nM
[2]
  Ki: 0.85 nM
